Results reported in patent USRE42890E1, “Furazanobenzimidazoles” (Basilea Pharmaceutica AG, priority 2003, dated 2011).
Where two headings read alike, the source gives them in different places.

Legend:
Jurkat = experiment: MTS proliferation assay, Jurkat; assay type: cell-based, human; details: 72 h incubation, read-out: MTS proliferation assay IC 50 Jurkat
In short: (§1)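 Absorbance at 492 nm after 3 h with MTS reagent gave the proliferation read-out. Before that, cells in RPMI-1640 complete medium (5% or 10% FCS) were treated 72 h with compound at four final concentrations, 0.3 to 10 μM.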

Jily = experiment: MTS proliferation assay, Jily; assay type: cell-based; details: 72 h incubation, read-out: MTS proliferation assay IC 50 Jily
In short: (§2)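 Read-out: MTS absorbance at 492 nm after 3 h reagent incubation. Before that, cells grew 72 h at 37° C/7.5% CO2 with test compounds at final concentrations of 10 μM, 3 μM, 1 μM and 0.3 μM, added 24 h post-seeding.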

HT1080 = experiment: MTS proliferation assay, HT1080; assay type: cell-based, human; details: HT1080, 72 h incubation, read-out: MTS proliferation assay IC 50 HT1080
In short: as §1

HeLa = experiment: MTS proliferation assay, HeLa; assay type: cell-based, human; details: 72 h incubation, read-out: MTS proliferation assay IC 50 HeLa
In short: as §1

MRC5 = experiment: MTS proliferation assay, MRC5; assay type: cell-based; details: MRC5, 72 h incubation, read-out: MTS proliferation assay IC 50 MRC5
In short: as §2

[1] = system: adherent cells or suspension cells; experiment: Hoechst 33342 nuclear staining (fraction of apoptotic nuclei); assay type: cell-based; parameters: key: 0 relating to no activity; 1 relating to weak activity comprising less than 70% of the cells; score 2 relating to strong activity comprising more than 70% of the cells

Row | Structure (SMILES) | IC50 (Jily) | Hoechst 33342 nuclear staining score ([1]; H460, conc 0.01 μm) | Hoechst 33342 nuclear staining score ([1]; H460, conc 0.1 μm) | Hoechst 33342 nuclear staining score ([1]; H460, conc 1 μm) | Hoechst 33342 nuclear staining score ([1]; HeLa, conc 0.01 μm) | Hoechst 33342 nuclear staining score ([1]; HeLa, conc 0.1 μm) | Hoechst 33342 nuclear staining score ([1]; HeLa, conc 1 μm) | Hoechst 33342 nuclear staining score ([1]; Jily, conc 0.01 μm) | Hoechst 33342 nuclear staining score ([1]; Jily, conc 0.1 μm) | Hoechst 33342 nuclear staining score ([1]; Jily, conc 1 μm) | Hoechst 33342 nuclear staining score ([1]; Jurkat, conc 0.01 μm) | Hoechst 33342 nuclear staining score ([1]; Jurkat, conc 0.1 μm) | Hoechst 33342 nuclear staining score ([1]; Jurkat, conc 1 μm) | Hoechst 33342 nuclear staining score ([1]; MRC5, conc 0.01 μm) | Hoechst 33342 nuclear staining score ([1]; MRC5, conc 0.1 μm) | Hoechst 33342 nuclear staining score ([1]; MRC5, conc 1 μm) | Hoechst 33342 nuclear staining score ([1]; PBLs, conc 0.01 μm) | Hoechst 33342 nuclear staining score ([1]; PBLs, conc 0.1 μm) | Hoechst 33342 nuclear staining score ([1]; PBLs, conc 1 μm) | IC50 (Jurkat) | further results
1 | Nc1ccc(C(=O)Cn2c(-c3nonc3NCCC(=O)O)nc3ccccc32)cc1 [Example 13, 4-[1-(4-Aminophenacyl)-1H-benzimidazol-2-yl]-furazan-3-yl-N-(2-carboxyethyl)-amine] | 100 to 1000 nM | 0 | 0 | 2 (score 2 relating to strong activity comprising more than 70% of the cells) | 0 | 0 | 2 (score 2 relating to strong activity comprising more than 70% of the cells) | 0 | 0 | 2 (score 2 relating to strong activity comprising more than 70% of the cells) | 0 | 0 | 2 (score 2 relating to strong activity comprising more than 70% of the cells) | 0 | 0 | 2 (score 2 relating to strong activity comprising more than 70% of the cells) | 0 | 0 | 0 |  | IC50 (Jurkat; Homo sapiens): 100 to 1000 nM; IC50 (HT1080; Homo sapiens, HT-1080): 100 to 1000 nM; IC50 (HeLa; Homo sapiens): 100 to 1000 nM; IC50 (MRC5; Homo sapiens): 100 to 1000 nM
2 | COc1cc(C(=O)Cn2c(-c3nonc3N)nc3ccccc32)ccc1OCc1ccccc1 [Example 73] | 100 to 1000 nM | 0 | 0 | 2 (score 2 relating to strong activity comprising more than 70% of the cells) | 0 | 0 | 1 (1 relating to weak activity comprising less than 70% of the cells) | 0 | 0 | 1 (1 relating to weak activity comprising less than 70% of the cells) | 0 | 0 | 2 (score 2 relating to strong activity comprising more than 70% of the cells) | 0 | 0 | 1 (1 relating to weak activity comprising less than 70% of the cells) | 0 | 0 | 0 | 100 to 1000 nM | IC50 (HT1080): 100 to 1000 nM; IC50 (HeLa): 100 to 1000 nM; IC50 (MRC5): 100 to 1000 nM
3 | N#CCCNc1nonc1-c1nc2ccccc2n1COc1ccccc1 [Example 95] | 100 to 1000 nM |  |  |  | 0 | 0 | 1 (1 relating to weak activity comprising less than 70% of the cells) | 0 | 0 | 1 (1 relating to weak activity comprising less than 70% of the cells) | 0 | 0 | 2 (score 2 relating to strong activity comprising more than 70% of the cells) | 0 | 0 | 0 | 0 | 0 | 0 | 100 to 1000 nM | IC50 (HT1080): 100 to 1000 nM; IC50 (HeLa): 100 to 1000 nM; IC50 (MRC5): 100 to 1000 nM
4 | Nc1nonc1-c1nc2ccccc2n1CC(=O)c1ccc([N+](=O)[O-])cc1 [Example 49] | 100 to 1000 nM | 0 | 0 | 0 | 0 | 0 | 1 (1 relating to weak activity comprising less than 70% of the cells) | 0 | 0 | 1 (1 relating to weak activity comprising less than 70% of the cells) | 0 | 0 | 2 (score 2 relating to strong activity comprising more than 70% of the cells) | 0 | 0 | 0 | 0 | 0 | 0 | 100 to 1000 nM | IC50 (HT1080): > 1000 nM; IC50 (HeLa): > 1000 nM; IC50 (MRC5): > 1000 nM
5 | N#CCCNc1nonc1-c1nc2ccccc2n1COc1ccc(Br)cc1 [Example 94] | 10 to 100 nM | 0 | 2 (score 2 relating to strong activity comprising more than 70% of the cells) | 2 (score 2 relating to strong activity comprising more than 70% of the cells) | 0 | 1 (1 relating to weak activity comprising less than 70% of the cells) | 2 (score 2 relating to strong activity comprising more than 70% of the cells) | 0 | 2 (score 2 relating to strong activity comprising more than 70% of the cells) | 2 (score 2 relating to strong activity comprising more than 70% of the cells) | 0 | 2 (score 2 relating to strong activity comprising more than 70% of the cells) | 2 (score 2 relating to strong activity comprising more than 70% of the cells) | 0 | 0 | 2 (score 2 relating to strong activity comprising more than 70% of the cells) | 0 | 0 | 0 | 10 to 100 nM | IC50 (HT1080): 10 to 100 nM; IC50 (HeLa): 10 to 100 nM; IC50 (MRC5): 100 to 1000 nM
6 | Nc1nonc1-c1nc2ccccc2n1CC(=O)/C=C/c1ccc(Cl)cc1 [Example 118] | > 1000 nM | 0 | 0 | 0 | 0 | 0 | 0 | 0 | 0 | 1 (1 relating to weak activity comprising less than 70% of the cells) | 0 | 0 | 0 | 0 | 0 | 0 | 0 | 0 | 0 | > 1000 nM | IC50 (HT1080): > 1000 nM; IC50 (HeLa): > 1000 nM; IC50 (MRC5): > 1000 nM
7 | COc1cccc(/C=C/C(=O)Cn2c(-c3nonc3N)nc3ccccc32)c1 [Example 120] | > 1000 nM | 0 | 0 | 0 | 0 | 0 | 0 | 0 | 0 | 0 | 0 | 0 | 0 | 0 | 0 | 0 | 0 | 0 | 0 | > 1000 nM | IC50 (HT1080): > 1000 nM; IC50 (HeLa): > 1000 nM; IC50 (MRC5): > 1000 nM
